{
  "source": "paper PMC11027885",
  "about": "“Utilizing surface plasmon resonance as a novel method for monitoring in-vitro P-glycoprotein efflux” (Frontiers in biophysics, 2024)",
  "key": {"mouse Pgp (Abcb1a, MDR3)": {"molecular_target": "mouse Pgp (Abcb1a, MDR3) (Mus musculus, UniProt P21447)", "sequence (P21447 whole entry)": "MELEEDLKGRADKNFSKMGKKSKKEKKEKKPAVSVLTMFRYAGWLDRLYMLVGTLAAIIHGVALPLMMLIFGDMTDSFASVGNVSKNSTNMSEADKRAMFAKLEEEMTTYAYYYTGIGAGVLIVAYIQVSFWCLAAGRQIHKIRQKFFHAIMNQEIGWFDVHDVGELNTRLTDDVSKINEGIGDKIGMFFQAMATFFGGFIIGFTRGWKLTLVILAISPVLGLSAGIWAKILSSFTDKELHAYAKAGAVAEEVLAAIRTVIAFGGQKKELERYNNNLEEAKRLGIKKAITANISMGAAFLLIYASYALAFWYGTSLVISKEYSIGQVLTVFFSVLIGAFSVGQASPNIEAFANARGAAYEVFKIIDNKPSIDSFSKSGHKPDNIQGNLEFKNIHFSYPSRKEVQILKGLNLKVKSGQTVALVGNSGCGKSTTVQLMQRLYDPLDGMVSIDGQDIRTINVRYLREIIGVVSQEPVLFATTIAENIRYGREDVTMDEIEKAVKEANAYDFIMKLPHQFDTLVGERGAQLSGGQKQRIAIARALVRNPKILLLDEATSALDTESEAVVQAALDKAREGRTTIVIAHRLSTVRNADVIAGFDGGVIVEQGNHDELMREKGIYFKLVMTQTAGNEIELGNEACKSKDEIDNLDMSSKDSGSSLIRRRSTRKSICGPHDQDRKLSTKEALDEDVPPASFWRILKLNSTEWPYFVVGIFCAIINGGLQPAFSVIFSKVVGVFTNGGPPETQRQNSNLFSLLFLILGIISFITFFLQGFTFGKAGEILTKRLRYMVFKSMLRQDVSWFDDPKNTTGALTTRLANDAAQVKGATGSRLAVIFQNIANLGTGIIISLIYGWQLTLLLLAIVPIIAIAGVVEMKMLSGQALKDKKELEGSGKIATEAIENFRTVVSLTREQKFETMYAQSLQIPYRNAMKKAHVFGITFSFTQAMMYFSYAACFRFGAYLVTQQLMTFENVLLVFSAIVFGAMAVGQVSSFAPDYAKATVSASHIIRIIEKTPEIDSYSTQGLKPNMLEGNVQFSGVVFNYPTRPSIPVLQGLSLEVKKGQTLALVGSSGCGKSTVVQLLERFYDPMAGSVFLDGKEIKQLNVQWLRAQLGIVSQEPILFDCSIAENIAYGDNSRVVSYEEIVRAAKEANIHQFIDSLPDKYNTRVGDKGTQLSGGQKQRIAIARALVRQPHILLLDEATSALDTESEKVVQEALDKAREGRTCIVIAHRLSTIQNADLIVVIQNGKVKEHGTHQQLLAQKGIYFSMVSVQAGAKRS", "experiment": "ATPase assay (Chifflet method), Pgp reconstituted in liposomes"}, "Pgp": {"system": "Pgp", "parameters": "method as in Doan et al. (2002)", "settings": "drug accumulation assay, MDR1-MDCKII cells; ref Doan et al. (2002); cited from earlier work"}, "Pgp (Abcb1a, MDR3)": {"molecular_target": "Pgp (Abcb1a, MDR3) (Mus musculus, UniProt P21447)", "sequence (P21447 whole entry)": "as above", "experiment": "in vitro", "settings": "pH 7.4"}},
  "note": "Structures can show the parent of a compound that is named as a salt. Where two headings read alike, the source gives them in different places.",
  "data": [
    {"smiles": "CCC(=O)C(CC(C)N(C)C)(c1ccccc1)c1ccccc1", "note": "(stereo not drawn) [Methadone, methadone hydrochloride]", "values": [
      {"measurement": "peak ATP hydrolysis rate", "setting": "mouse Pgp (Abcb1a, MDR3)", "result": "approximately 800 nmolmin^−1mg^−1"},
      {"measurement": "vmax of Pgp ATP hydrolysis", "setting": "mouse Pgp (Abcb1a, MDR3)", "result": "849 ± 45", "unit": "nmolmin^−1mg^−1"}
    ]},
    {"smiles": "[Na+].[Na+].[Na+].[O]=[V]([O-])([O-])[O-]", "note": "[sodium orthovanadate, Sodium orthovanadate]", "values": [
      {"measurement": "Pgp ATPase activity in presence of inhibitor", "setting": "mouse Pgp (Abcb1a, MDR3); decline from basal 482 ± 50", "result": "approximately 100 nmolmin^−1mg^−1"}
    ]},
    {"smiles": "CNCCCN1c2ccccc2CCc2ccccc21", "note": "[Desipramine, desipramine hydrochloride]", "values": [
      {"measurement": "Pgp efflux ratio (literature)", "setting": "Pgp", "result": 2},
      {"measurement": "koff", "setting": "Pgp (Abcb1a, MDR3)", "result": 129, "unit": "s⁻¹"},
      {"measurement": "vmax of Pgp ATP hydrolysis", "setting": "mouse Pgp (Abcb1a, MDR3); 50 nM Pgp in liposomes, curve fit (Eq. 2 monophasic, Eq. 3 biphasic)", "result": "904 ± 65", "unit": "nmolmin^−1mg^−1"},
      {"measurement": "ATP hydrolysis activation profile", "setting": "mouse Pgp (Abcb1a, MDR3); shape of ATPase kinetics curve", "result": "monophasic"}
    ]},
    {"smiles": "C=C[C@H]1C[N@@]2CC[C@H]1C[C@@H]2[C@@H](O)c1ccnc2ccc(OC)cc12", "note": "[Quinidine]", "values": [
      {"measurement": "Ki", "setting": "mouse Pgp (Abcb1a, MDR3)", "result": "131 ± 34", "unit": "µM"},
      {"measurement": "peak ATP hydrolysis rate", "setting": "mouse Pgp (Abcb1a, MDR3)", "result": "approximately 900 nmolmin^−1mg^−1"}
    ]}
  ]
}
